Data reported in patent publication US20260216207A1, “7-CARBONYLSTAUROSPORINE DERIVATIVE, PREPARATION METHOD THEREFOR, AND USE THEREOF” (HANGZHOU KEXING BIOCHEM. CO., LTD., priority 2023, published 2026).
Read-outs that look alike come from different tables or passages of the source.

Legend:
Format in all cases: biochemical
[1] = target: PIM-1 kinase (Homo sapiens, UniProt P11309); test: HTRF KinEASE kinase assay, PIM-1 inhibitory activity
Description: Inhibitory activities against PIM-1, TRKA, TRKB, FLT3, PKCδ, PKCε, PKCη, PAK4, PLK1, ROCK2, and IKKβ kinases were all determined using an HTRF®KinEASE™ kinase assay kit based on a time-resolved fluorescence technology. 7-carbonylstaurosporine (7OSTA) and TP-3654 were used as positive controls, and 3 duplicate wells were set in parallel. Specific operation steps are as follows. • (1) A kinase buffer was formulated and then used to formulate compounds to be tested, a positive drug, a substrate, kinases, and adenosine triphosphate (ATP). • (2) 2 μL of the substrate, 2 μL of the kinases (the kinases were not added in a negative control group), 4 μL of the compounds to be tested or the positive drug (4 μL of a buffer was added in a positive control group, and 6 μL of a buffer was added in the negative control group), and 2 μL of the ATP were sequentially added into each well of a 384-well microplate, and the microplate was sealed with a membrane and then centrifuged for uniform mixing. • (3) According to different types of the kinases, incubation was performed in an incubator at 37° C. for a specific time. • (4) A detection solution was formulated using XL-665, an antibody, and a detection buffer, 10 µL of the detection solution was added into each well, the microplate was sealed with a membrane and then centrifuged for uniform mixing, and standing was performed at room temperature for 1 hour. • (5) Fluorescence value intensities F1 and F2 at wavelengths of 620 nm and 665 nm were measured using a multifunctional microplate tester, respectively. A signal ratio was calculated as F2/F1×10000, and then an IC50 value was calculated using Graphpad Prism 8 software.

[2] = target: ROCK2 (Homo sapiens, UniProt O75116); test: HTRF KinEASE kinase assay, ROCK2 (kinase selectivity)
ROCK2, sequence (O75116 whole entry, species assumed): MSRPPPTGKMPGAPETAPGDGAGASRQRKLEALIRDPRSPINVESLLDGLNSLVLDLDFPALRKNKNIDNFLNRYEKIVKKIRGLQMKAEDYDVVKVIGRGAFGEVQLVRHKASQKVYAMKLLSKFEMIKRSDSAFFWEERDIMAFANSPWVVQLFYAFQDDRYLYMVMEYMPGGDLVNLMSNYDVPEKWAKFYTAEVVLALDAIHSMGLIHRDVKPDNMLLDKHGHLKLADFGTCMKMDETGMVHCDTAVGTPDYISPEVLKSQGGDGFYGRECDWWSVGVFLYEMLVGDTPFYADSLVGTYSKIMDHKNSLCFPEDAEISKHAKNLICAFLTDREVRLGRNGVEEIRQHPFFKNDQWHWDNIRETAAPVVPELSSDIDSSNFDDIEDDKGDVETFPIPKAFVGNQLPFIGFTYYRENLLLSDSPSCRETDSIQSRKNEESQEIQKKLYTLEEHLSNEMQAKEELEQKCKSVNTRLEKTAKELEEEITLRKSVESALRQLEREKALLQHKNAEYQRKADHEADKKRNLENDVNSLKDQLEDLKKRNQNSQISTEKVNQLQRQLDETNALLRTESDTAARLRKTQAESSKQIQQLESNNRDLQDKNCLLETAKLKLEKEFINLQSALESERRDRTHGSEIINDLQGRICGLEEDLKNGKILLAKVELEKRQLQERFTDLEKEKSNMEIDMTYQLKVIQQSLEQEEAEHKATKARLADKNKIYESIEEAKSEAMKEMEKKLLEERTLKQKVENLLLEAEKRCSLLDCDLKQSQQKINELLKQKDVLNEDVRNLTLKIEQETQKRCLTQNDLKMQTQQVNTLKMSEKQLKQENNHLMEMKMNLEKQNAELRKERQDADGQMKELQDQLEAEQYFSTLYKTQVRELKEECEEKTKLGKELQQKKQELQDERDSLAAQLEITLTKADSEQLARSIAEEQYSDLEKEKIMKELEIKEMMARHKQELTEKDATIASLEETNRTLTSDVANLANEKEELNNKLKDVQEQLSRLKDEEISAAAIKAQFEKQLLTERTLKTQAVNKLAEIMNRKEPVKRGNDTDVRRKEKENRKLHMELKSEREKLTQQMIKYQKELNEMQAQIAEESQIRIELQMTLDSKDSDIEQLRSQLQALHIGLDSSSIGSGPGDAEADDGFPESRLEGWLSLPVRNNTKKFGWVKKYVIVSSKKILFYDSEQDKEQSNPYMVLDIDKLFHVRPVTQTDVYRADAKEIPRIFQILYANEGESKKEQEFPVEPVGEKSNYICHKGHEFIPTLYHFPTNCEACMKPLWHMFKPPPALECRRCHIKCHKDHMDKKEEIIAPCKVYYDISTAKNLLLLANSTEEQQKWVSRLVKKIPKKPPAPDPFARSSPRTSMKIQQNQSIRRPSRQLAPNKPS
Protocol: (§1) Inhibitory activities against PIM-1, TRKA, TRKB, FLT3, PKCδ, PKCε, PKCη, PAK4, PLK1, ROCK2, and IKKβ kinases were all determined using an HTRF®KinEASE™ kinase assay kit based on a time-resolved fluorescence technology. 7-carbonylstaurosporine (7OSTA) and TP-3654 were used as positive controls, and 3 duplicate wells were set in parallel. […] A signal ratio was calculated as F2/F1×10000, and then an IC50 value was calculated using Graphpad Prism 8 software.

[3] = target: PAK4 (Homo sapiens, UniProt O96013); test: HTRF KinEASE kinase assay, PAK4 (kinase selectivity)
PAK4, sequence (O96013 whole entry, species assumed): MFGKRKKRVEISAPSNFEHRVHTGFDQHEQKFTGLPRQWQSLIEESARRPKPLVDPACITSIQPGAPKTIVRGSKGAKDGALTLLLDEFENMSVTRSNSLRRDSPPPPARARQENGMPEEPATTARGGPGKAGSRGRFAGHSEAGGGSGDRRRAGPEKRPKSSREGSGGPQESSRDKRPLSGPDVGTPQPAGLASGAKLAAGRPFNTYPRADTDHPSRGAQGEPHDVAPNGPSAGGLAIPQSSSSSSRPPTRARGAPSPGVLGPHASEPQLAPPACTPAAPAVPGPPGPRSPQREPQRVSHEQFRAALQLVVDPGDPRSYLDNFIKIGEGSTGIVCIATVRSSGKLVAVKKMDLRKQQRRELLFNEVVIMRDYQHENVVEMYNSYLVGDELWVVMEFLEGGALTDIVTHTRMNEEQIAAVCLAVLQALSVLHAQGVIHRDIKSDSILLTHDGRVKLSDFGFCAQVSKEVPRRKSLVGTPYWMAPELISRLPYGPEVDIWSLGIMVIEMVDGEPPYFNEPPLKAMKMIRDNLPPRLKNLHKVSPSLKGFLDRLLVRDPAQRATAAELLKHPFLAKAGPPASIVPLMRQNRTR
Protocol: as §1

[4] = target: PKCδ (Homo sapiens, UniProt Q05655); test: HTRF KinEASE kinase assay, PKCδ (kinase selectivity)
PKCδ, sequence (Q05655 whole entry): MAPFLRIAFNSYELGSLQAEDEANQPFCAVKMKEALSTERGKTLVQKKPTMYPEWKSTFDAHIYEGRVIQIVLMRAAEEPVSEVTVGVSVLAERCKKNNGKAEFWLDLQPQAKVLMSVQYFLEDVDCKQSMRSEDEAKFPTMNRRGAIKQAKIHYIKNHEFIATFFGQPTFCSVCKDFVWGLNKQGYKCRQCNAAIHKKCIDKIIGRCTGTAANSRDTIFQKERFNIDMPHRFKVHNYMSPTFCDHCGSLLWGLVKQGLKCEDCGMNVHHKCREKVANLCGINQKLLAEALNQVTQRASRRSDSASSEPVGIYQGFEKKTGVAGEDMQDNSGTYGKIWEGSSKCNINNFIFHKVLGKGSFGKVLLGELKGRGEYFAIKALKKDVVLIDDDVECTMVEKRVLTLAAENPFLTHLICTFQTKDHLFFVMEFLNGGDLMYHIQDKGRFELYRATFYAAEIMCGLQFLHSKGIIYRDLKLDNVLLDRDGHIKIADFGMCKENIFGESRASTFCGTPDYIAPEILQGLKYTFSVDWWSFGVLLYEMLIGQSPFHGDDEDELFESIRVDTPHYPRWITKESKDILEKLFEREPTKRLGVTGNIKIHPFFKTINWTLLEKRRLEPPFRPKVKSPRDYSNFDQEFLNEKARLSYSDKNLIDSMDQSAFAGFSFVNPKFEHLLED
Protocol: as §1

[5] = target: T1, PKCε (Homo sapiens, UniProt Q02156); test: HTRF KinEASE kinase assay, PKCε (kinase selectivity)
T1 sequence (Q02156 1-737): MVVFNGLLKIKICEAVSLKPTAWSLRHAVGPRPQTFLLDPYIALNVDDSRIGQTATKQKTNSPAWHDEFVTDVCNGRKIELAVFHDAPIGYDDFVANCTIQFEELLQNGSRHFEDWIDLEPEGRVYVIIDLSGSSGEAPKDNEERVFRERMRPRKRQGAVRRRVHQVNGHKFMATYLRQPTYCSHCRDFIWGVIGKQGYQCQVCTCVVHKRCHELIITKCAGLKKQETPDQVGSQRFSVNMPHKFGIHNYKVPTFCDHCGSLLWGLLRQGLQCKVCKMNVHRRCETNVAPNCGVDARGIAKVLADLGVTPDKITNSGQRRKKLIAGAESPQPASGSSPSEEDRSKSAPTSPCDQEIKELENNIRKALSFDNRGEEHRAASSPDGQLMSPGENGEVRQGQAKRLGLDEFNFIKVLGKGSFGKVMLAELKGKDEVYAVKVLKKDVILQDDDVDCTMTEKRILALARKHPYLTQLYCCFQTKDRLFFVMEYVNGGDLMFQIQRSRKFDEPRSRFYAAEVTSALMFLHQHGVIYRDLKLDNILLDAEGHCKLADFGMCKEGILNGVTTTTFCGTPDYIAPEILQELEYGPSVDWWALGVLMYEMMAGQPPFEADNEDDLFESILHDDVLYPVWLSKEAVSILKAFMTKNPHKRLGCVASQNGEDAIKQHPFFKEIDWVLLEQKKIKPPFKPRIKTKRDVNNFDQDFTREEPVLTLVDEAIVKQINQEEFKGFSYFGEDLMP
Protocol: as §1

[6] = target: T2, FLT3 (Homo sapiens, UniProt P36888); test: HTRF KinEASE kinase assay, FLT3 (kinase selectivity)
T2 sequence (P36888 27-993): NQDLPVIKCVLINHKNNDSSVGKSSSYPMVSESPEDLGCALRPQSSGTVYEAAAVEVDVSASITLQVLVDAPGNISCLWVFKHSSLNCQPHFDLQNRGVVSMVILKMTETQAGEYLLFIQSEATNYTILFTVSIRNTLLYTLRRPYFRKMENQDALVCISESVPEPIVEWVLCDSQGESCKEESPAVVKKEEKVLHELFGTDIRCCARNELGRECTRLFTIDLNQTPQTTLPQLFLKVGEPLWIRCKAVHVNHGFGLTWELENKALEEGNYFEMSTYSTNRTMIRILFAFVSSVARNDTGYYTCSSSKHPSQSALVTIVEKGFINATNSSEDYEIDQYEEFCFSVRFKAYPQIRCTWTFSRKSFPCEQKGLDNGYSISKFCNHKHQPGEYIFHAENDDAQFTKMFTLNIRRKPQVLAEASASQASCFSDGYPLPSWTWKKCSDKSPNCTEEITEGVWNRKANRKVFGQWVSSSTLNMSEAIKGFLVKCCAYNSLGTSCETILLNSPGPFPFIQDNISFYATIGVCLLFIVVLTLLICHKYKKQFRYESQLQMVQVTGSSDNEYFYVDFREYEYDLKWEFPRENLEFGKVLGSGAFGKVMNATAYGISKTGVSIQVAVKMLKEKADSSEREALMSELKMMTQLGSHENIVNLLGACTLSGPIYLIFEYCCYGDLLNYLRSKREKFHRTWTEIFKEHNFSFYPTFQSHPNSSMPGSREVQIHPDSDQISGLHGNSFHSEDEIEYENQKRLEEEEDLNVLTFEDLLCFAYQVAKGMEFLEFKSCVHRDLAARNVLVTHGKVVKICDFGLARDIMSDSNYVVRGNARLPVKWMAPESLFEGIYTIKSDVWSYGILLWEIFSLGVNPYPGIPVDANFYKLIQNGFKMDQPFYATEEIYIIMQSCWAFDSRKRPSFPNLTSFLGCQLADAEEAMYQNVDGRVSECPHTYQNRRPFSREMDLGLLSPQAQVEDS
Protocol: as §1

[7] = target: T3, IKKβ (Homo sapiens, UniProt O14920); test: HTRF KinEASE kinase assay, IKKβ (kinase selectivity)
T3 sequence (O14920 1-756): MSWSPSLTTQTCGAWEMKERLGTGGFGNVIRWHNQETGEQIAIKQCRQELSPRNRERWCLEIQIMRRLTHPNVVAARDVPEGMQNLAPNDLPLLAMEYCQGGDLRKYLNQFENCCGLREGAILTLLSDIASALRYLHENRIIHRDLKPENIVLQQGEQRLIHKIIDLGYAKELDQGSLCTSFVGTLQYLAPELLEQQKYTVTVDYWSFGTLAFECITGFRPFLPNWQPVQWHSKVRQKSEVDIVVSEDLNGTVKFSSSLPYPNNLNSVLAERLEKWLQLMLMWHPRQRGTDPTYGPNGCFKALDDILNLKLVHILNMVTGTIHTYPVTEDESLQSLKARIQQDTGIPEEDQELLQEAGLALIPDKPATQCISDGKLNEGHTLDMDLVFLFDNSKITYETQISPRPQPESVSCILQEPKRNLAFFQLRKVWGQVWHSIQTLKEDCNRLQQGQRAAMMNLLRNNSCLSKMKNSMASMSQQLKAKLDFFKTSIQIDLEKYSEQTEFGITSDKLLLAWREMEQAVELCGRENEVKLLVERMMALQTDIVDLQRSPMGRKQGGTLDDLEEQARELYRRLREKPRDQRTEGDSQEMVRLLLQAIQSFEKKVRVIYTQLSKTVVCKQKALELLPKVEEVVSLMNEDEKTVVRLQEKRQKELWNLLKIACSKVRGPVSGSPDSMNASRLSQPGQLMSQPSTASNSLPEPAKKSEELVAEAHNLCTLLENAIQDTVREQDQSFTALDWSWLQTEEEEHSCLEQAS
Protocol: as §1

[8] = target: PLK1 (Homo sapiens, UniProt P53350); test: HTRF KinEASE kinase assay, PLK1 (kinase selectivity)
Protocol: as §1

[9] = target: PKCη (Homo sapiens, UniProt P24723); test: HTRF KinEASE kinase assay, PKCη (kinase selectivity)
Protocol: as §1

[10] = target: TRKA (Homo sapiens, UniProt P04629); test: HTRF KinEASE kinase assay, TRKA (kinase selectivity)
TRKA, sequence (P04629 33-796, species assumed): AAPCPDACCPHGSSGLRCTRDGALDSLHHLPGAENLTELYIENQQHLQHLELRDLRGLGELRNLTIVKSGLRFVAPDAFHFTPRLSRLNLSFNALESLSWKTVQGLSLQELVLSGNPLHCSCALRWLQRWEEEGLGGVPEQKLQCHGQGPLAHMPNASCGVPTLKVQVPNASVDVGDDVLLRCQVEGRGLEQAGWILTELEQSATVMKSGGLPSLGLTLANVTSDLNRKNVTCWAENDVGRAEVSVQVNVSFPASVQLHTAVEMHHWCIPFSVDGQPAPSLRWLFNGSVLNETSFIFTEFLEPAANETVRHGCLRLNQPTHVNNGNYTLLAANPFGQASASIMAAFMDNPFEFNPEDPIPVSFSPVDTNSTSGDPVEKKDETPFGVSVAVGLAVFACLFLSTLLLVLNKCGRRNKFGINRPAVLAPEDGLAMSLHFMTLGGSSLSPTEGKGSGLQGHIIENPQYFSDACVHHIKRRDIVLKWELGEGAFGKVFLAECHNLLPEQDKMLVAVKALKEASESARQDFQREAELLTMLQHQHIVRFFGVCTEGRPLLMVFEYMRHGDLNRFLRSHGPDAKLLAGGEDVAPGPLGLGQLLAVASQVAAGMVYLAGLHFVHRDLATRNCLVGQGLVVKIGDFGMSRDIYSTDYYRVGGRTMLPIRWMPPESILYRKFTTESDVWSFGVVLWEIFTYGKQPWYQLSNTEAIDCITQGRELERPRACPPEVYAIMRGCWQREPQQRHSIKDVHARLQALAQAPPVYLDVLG
Protocol: as §1

[11] = target: TRKB (Homo sapiens, UniProt Q16620); test: HTRF KinEASE kinase assay, TRKB (kinase selectivity)
TRKB, sequence (Q16620 32-822, species assumed): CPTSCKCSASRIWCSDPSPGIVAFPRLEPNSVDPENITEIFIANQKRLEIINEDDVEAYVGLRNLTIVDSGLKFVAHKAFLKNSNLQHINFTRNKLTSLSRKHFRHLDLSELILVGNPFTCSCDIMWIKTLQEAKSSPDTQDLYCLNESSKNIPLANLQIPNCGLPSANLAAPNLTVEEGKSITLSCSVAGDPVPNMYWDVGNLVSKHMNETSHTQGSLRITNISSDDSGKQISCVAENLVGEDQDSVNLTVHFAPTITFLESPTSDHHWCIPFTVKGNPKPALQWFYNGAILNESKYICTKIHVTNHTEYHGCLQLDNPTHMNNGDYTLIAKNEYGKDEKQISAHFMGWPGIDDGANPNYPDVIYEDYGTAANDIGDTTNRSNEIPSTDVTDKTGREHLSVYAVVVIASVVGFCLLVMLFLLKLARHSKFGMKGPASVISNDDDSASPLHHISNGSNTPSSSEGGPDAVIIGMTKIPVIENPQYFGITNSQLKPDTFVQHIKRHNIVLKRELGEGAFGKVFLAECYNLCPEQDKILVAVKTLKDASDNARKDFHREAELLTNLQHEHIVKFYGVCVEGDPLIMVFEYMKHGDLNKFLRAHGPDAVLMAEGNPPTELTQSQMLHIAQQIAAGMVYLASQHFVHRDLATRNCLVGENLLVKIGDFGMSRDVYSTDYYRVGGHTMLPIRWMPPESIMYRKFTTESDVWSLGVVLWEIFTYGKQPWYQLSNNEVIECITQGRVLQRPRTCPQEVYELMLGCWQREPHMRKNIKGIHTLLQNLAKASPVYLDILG
Protocol: as §1

[12] = HTRF KinEASE kit, 3 duplicate wells, read-out: PIM-1 kinase inhibitory activity (IC50)

PIM-1 kinase, sequence (P11309 whole entry): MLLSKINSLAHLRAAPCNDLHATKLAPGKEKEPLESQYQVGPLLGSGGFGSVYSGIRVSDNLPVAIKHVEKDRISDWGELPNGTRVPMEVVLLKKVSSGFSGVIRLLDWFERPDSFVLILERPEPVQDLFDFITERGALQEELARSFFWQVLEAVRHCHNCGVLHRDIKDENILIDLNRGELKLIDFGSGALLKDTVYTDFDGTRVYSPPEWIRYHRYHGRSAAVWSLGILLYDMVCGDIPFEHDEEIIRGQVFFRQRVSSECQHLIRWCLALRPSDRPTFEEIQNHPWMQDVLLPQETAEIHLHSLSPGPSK

Row | IC50 [1, 12] [nM] | Compound | further results
1 | 445 | CO[C@@H]1[C@H](N(C)C(=O)C2CC2)C[C@H]2O[C@]1(C)n1c3ccccc3c3c4c(c5c6ccccc6n2c5c31)C(=O)NC4=O [Compound 7] | –
2 | > 1000 | CO[C@@H]1[C@H](N(C)C(=O)c2ccc3c(c2)OCO3)C[C@H]2O[C@]1(C)n1c3ccccc3c3c4c(c5c6ccccc6n2c5c31)C(=O)NC4=O [Compound 9] | –
3 | 83 | CCCC(=O)N(C)[C@@H]1C[C@H]2O[C@@](C)([C@@H]1OC)n1c3ccccc3c3c4c(c5c6ccccc6n2c5c31)C(=O)NC4=O [Compound 2] | –
4 | 31.1 | CC(C)(O)[C@H]1CC[C@H](Nc2ccc3ncc(-c4cccc(C(F)(F)F)c4)n3n2)CC1 [TP-3654, reference compound] | –
5 | > 1000 | CCCCCCCC(=O)N(C)[C@@H]1C[C@H]2O[C@@](C)([C@@H]1OC)n1c3ccccc3c3c4c(c5c6ccccc6n2c5c31)C(=O)NC4=O [Compound 6] | –
6 | 65.9 | CO[C@@H]1[C@H](N(C)C(=O)CCCCCCC(=O)O)C[C@H]2O[C@]1(C)n1c3ccccc3c3c4c(c5c6ccccc6n2c5c31)C(=O)NC4=O [Compound 16] | –
7 | 53.8 | CO[C@@H]1[C@H](N(C)C(=O)CSCC(=O)O)C[C@H]2O[C@]1(C)n1c3ccccc3c3c4c(c5c6ccccc6n2c5c31)C(=O)NC4=O [Compound 14] | –
8 | 32.4 | CO[C@@H]1[C@H](N(C)C(=O)CCC(=O)Nc2cc[nH]n2)C[C@H]2O[C@]1(C)n1c3ccccc3c3c4c(c5c6ccccc6n2c5c31)C(=O)NC4=O [Compound 18] | –
9 | 42.9 | CO[C@@H]1[C@H](N(C)C(=O)CCC(=O)O)C[C@H]2O[C@]1(C)n1c3ccccc3c3c4c(c5c6ccccc6n2c5c31)C(=O)NC4=O [Compound 12] | –
10 | > 1000 | CCCCCCC(=O)N(C)[C@@H]1C[C@H]2O[C@@](C)([C@@H]1OC)n1c3ccccc3c3c4c(c5c6ccccc6n2c5c31)C(=O)NC4=O [Compound 5] | –
11 | > 1000 | CCCCC(=O)N(C)[C@@H]1C[C@H]2O[C@@](C)([C@@H]1OC)n1c3ccccc3c3c4c(c5c6ccccc6n2c5c31)C(=O)NC4=O [Compound 3] | –
12 | 52.4 | CO[C@@H]1[C@H](N(C)C(=O)c2cccs2)C[C@H]2O[C@]1(C)n1c3ccccc3c3c4c(c5c6ccccc6n2c5c31)C(=O)NC4=O [Compound 8] | –
13 | > 1000 | CCCCCC(=O)N(C)[C@@H]1C[C@H]2O[C@@](C)([C@@H]1OC)n1c3ccccc3c3c4c(c5c6ccccc6n2c5c31)C(=O)NC4=O [Compound 4] | –
14 | > 1000 | CO[C@@H]1[C@H](N(C)C(=O)/C=C/c2ccccc2)C[C@H]2O[C@]1(C)n1c3ccccc3c3c4c(c5c6ccccc6n2c5c31)C(=O)NC4=O [Compound 11] | –
15 | 81.4 | CO[C@@H]1[C@H](N(C)C(=O)C=C(C)C)C[C@H]2O[C@]1(C)n1c3ccccc3c3c4c(c5c6ccccc6n2c5c31)C(=O)NC4=O [Compound 10] | –
16 | 41 | CCC(=O)N(C)[C@@H]1C[C@H]2O[C@@](C)([C@@H]1OC)n1c3ccccc3c3c4c(c5c6ccccc6n2c5c31)C(=O)NC4=O [Compound 1] | –
17 | – | CN[C@@H]1C[C@H]2O[C@@](C)([C@@H]1OC)n1c3ccccc3c3c4c(c5c6ccccc6n2c5c31)C(=O)NC4=O [Compound 7OSTA, 7-carbonylstaurosporine] | IC50 [2]: 35.9 nM; IC50 [3]: 37 nM; IC50 [4]: 1.4 nM; IC50 [5]: 2.3 nM; IC50 [6]: 15.3 nM; IC50 [7]: > 1000 nM; IC50 [8]: 308 nM; IC50 [1]: 5.4 nM; IC50 [9]: 2.1 nM; IC50 [10]: 0.4 nM; IC50 [11]: 2.4 nM
18 | 39.1 | CO[C@@H]1[C@H](N(C)C(=O)CCCC(=O)O)C[C@H]2O[C@]1(C)n1c3ccccc3c3c4c(c5c6ccccc6n2c5c31)C(=O)NC4=O [Compound 13] | –
19 | 61.1 | CO[C@@H]1[C@H](N(C)C(=O)CCCCC(=O)O)C[C@H]2O[C@]1(C)n1c3ccccc3c3c4c(c5c6ccccc6n2c5c31)C(=O)NC4=O [Compound 15] | –
